# How the values were obtained:
# [1] = target: T1, purified human TDO enzyme (Homo sapiens, UniProt P48775); experiment: TDO inhibition assay by the spectrometric method; type: biochemical; settings: spectrophotometric
# T1 construct: 6xHis (N); made in house; host or cells: Escherichia coli BL21 (DE3) (pET 28a vector)
# Procedure: Both IDO1 and TDO inhibition assays were performed according to the reported procedures[26]–[30],[50],[51]. The solubility of the compounds in water was either moderate or poor. […] In the assay system, the minimum and maximum amount of DMSO was 0.02% and 2%, respectively. The standard reaction mixture (500 μL) containing KPB (100 mM, pH 6.5 for IDO1 enzyme and 50 mM, pH 8.0 for TDO enzyme), sodium ascorbate (20 mM), methylene blue (10 µM), catalase (240 nM, from bovine liver), L-Trp (150 µM), purified enzyme (40 nM for IDO1 and 25 nM for TDO), DMSO (0.05%, v/v), Triton-X 100 (0.01%, v/v) and inhibitors was incubated at 37 °C for 1 hour. The concentration of the inhibitors was varied from 100 µM to 32 nM by serial dilution technique. Then, the reaction was quenched with 100 µL of 30% (w/v) trichloroacetic acid and was incubated for further 15 minutes at 65 °C. After that, 2% (w/v) pDMAB was used to quantify the amount of kynurenine formation. The absorbance of the reaction mixture was recorded by UV-Vis spectrophotometer at 480 nm. The Km = 59.76 µM and Kcat = 6.18 sec^−1.
# IDO1 [2] = target: T2, IDO1 (Homo sapiens, UniProt P14902); experiment: Cellular IDO1 activity assay in IFN-γ induced MDA-MB-231 cells; type: cell-based; parameters: induce the expression of the native IDO1 enzyme from its mRNA in the MDA-MB-231 cells; endogenous in cells; host or cells: MDA-MB-231 cells induced with human IFN-γ (50 ng/mL); settings: IDO1 expression induced by human IFN-γ (50 ng/mL); mean of three
# T2 sequence (P14902 whole entry): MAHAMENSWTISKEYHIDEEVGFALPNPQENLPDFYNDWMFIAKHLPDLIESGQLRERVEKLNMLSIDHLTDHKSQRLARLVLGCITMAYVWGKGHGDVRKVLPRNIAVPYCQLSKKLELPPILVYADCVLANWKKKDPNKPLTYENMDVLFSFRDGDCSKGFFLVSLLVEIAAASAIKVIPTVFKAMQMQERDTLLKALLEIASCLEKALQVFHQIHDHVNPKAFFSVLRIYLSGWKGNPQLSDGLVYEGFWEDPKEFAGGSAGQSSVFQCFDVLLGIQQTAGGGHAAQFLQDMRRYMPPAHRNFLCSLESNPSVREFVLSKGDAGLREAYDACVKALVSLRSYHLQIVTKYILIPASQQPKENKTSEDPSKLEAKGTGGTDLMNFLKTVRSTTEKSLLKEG
# Procedure: The cellular enzyme activity assay was performed according to the reported procedure with minor modifications[19],[27]–[30],[33],[54]. Briefly, MDA-MB-231 breast cancer cells were selected for this assay because of the presence of IDO1 mRNA in this cell line. First, cells were grown in DMEM/F12 complete media overnight. Then different concentration of human interferon-gamma (IFN-γ) (from 5–1000 ng/mL) was added to it and incubated for 48 hours. This treatment is reported to allow over-expression of IDO1 enzyme in MDA-MB-231 cells. […] Sterile cell-culture grade PBS was used to wash the cells by centrifugation technique. Then, the pellet was lysed in 10 mM HEPES buffer by passing through a sterile syringe. The lysate was used for standard IDO1 assay as mentioned earlier. The relative amount of N-formylkynurenine generated in the presence of the different concentration of IFN-γ was used to optimize the required concentration of IFN-γ for the IDO1 inhibition assay. […] Cells stimulated with IFN-γ alone were used as negative control, while cells stimulated with L-Trp without compound served as positive control. The cells were washed with sterile cell culture grade PBS and lysed in 10 mM HEPES buffer by sterile syringe. The lysate was used for standard IDO1 assay, as mentioned earlier, and the extent of IDO1 enzyme inhibition was determined for the selected compounds.
# [3] = target: T3, purified human IDO1 enzyme (Homo sapiens, UniProt P14902); experiment: IDO1 inhibition assay by the spectrometric method (pDMAB); type: biochemical; settings: for IC50: purified human IDO1, spectrophotometric, mean of three independent assays, read-out: hIDO1 IC50; for fold stronger IDO1 inhibitory activity than 1a: in comparison with lead compound 1a
# T3 construct: made in house; host or cells: Escherichia coli M15 (pQE30 vector with pREP4 plasmid)
# T3 sequence (P14902 whole entry): as above
# Procedure: Both IDO1 and TDO inhibition assays were performed according to the reported procedures[26]–[30],[50],[51]. […] In the assay system, the minimum and maximum amount of DMSO was 0.02% and 2%, respectively. […] The concentration of the inhibitors was varied from 100 µM to 32 nM by serial dilution technique. Then, the reaction was quenched with 100 µL of 30% (w/v) trichloroacetic acid and was incubated for further 15 minutes at 65 °C. After that, 2% (w/v) pDMAB was used to quantify the amount of kynurenine formation. The absorbance of the reaction mixture was recorded by UV-Vis spectrophotometer at 480 nm.
# TDO enzyme = target: T4, TDO enzyme (Homo sapiens, UniProt P48775); experiment: HPLC based TDO inhibition assay; type: biochemical
# T4 construct: 6xHis (N); made in house; host or cells: Escherichia coli BL21 (DE3) (pET 28a vector)
# T4 sequence (P48775 whole entry): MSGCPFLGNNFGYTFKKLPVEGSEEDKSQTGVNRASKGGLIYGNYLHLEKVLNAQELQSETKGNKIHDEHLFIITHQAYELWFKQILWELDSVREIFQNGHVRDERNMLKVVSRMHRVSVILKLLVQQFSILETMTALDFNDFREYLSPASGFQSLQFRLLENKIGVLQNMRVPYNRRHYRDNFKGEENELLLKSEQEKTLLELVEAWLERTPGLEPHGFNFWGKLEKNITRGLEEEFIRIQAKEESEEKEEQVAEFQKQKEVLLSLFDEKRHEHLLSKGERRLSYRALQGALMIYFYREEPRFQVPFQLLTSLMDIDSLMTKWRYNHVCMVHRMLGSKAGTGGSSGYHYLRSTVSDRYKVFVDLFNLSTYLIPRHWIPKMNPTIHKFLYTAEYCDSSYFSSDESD
# Procedure: (§1) HPLC based IDO1, and TDO inhibition assays were performed according to the earlier reported procedure[19],[27]–[30]. The reaction mixture (250 µL) contained KPB (100 mM, pH 6.5 for IDO1 and 50 mM, pH 8.0 for TDO), sodium ascorbate (20 mM), methylene blue (10 µM), catalase (240 nM, from bovine liver, Sigma), L-Trp (150 µM), purified enzyme (40 nM for IDO1 and 25 nM for TDO), DMSO (0.05%, v/v), Triton-X 100 (0.01%, v/v) and inhibitors. The concentration of the compound was varied from 100 µM to 32 nM by serial dilution. The mixture was incubated at 37 °C for 1 hour in the absence and presence of the synthesized compounds. The reaction was then quenched using 50 µL of 30% (w/v) trichloroacetic acid and incubated at 65 °C for additional 15 minutes to allow complete hydrolysis of N-formylkynurenine to kynurenine. After that, the mixture was centrifuged at 10,000 rpm for 10 minutes, and 100 µL of clear solution was transferred to another tube for HPLC analysis. Then, 20 µL of the reaction mixture was then injected through Ascentis® express C18, 2.7 µm HPLC column with a flow rate of 0.5 mL/minute of the mobile phase containing 50% sodium citrate buffer (40 mM, pH 2.25) and 50% methanol (v/v) with 400 µM SDS. The area under the curve at 365 nm chromatogram corresponding to the kynurenine formation was recorded, and % of inhibition was calculated using standard curve prepared with pure kynurenine (from Sigma) under similar experimental conditions.
# IDO1 [4] = target: T2, IDO1; experiment: Kynurenine assay by HPLC analysis, IDO1; type: biochemical; parameters: made in house; host or cells: Escherichia coli M15 (pQE30 vector with pREP4 plasmid); settings: for IC50: HPLC based IDO1 inhibition assay
# Procedure: as §1
# T1 sequence (P48775 whole entry): as above
smiles,measurement,setting,value
O=C(O)c1n[nH]nc1-c1ccc(F)c(F)c1 [Compound 4a],% of Enzyme inhibition (TDO),[1]; 32 nM,4%
same,% of Enzyme inhibition (TDO),[1]; 160 nM,8%
same,% of Enzyme inhibition (TDO),[1]; 800 nM,16%
same,% of Enzyme inhibition (TDO),[1]; 4 µM,18%
same,% of Enzyme inhibition (TDO),[1]; 20 µM,22%
same,% of Enzyme inhibition (TDO),[1]; 100 µM,30%
same,EC50,IDO1 [2],1.23 ± 0.021 µM
same,IC50,[3],17.4 ± 0.918 µM
same,% Of inhibition for TDO enzyme,TDO enzyme; 32 nM,6%
same,% Of inhibition for TDO enzyme,TDO enzyme; 160 nM,18%
same,% Of inhibition for TDO enzyme,TDO enzyme; 800 nM,26%
same,% Of inhibition for TDO enzyme,TDO enzyme; 4 µM,38%
same,% Of inhibition for TDO enzyme,TDO enzyme; 20 µM,41%
same,% Of inhibition for TDO enzyme,TDO enzyme; 100 µM,54%
same,IC50,IDO1 [4],8.944 ± 0.087 µM
same,% Of inhibition for IDO1 enzyme,"IDO1 [4]; HPLC, 32 nM",11%
same,% Of inhibition for IDO1 enzyme,"IDO1 [4]; HPLC, 160 nM",13%
same,% Of inhibition for IDO1 enzyme,"IDO1 [4]; HPLC, 800 nM",29%
same,% Of inhibition for IDO1 enzyme,"IDO1 [4]; HPLC, 4 µM",30%
same,% Of inhibition for IDO1 enzyme,"IDO1 [4]; HPLC, 20 µM",57%
same,% Of inhibition for IDO1 enzyme,"IDO1 [4]; HPLC, 100 µM",65%
Fc1ccc(-c2n[nH]nc2-c2ccc(F)c(Cl)c2)cc1Cl [Compound 1k],IC50,[3],6.91 ± 0.099 µM
Clc1cccc(-c2n[nH]nc2-c2cccc(Cl)c2)c1 [Compound 1d],IC50,[3],2.51 ± 0.06 µM
NC(=O)c1n[nH]nc1-c1cccc(F)c1 [Compound 3c],IC50,[3],6.61 ± 0.355 µM
CCOC(=O)c1n[nH]nc1-c1ccc(Br)cc1 [Compound 2h],IC50,[3],18.4 ± 1.68 µM
Fc1ccc(-c2n[nH]nc2-c2ccc(F)c(F)c2)cc1F [Compound 1i],IC50,[3],7.72 ± 0.761 µM
NC(=O)c1n[nH]nc1-c1ccc(F)c(Br)c1 [3 l],IC50,[3],1.993 ± 0.005 µM
"NC(=O)c1n[nH]nc1-c1ccccc1 [Compound 3a, 5-phenyl-2H-1,2,3-triazole-4-carboxamide]",inhibition at 0.032 µM,[1]; 32 nM,5%
same,inhibition at 0.16 µM,[1]; 160 nM,7%
same,inhibition at 0.8 µM,[1]; 800 nM,19%
same,inhibition at 4 µM,[1]; 4 µM,23%
same,inhibition at 20 µM,[1]; 20 µM,29%
same,inhibition at 100 µM,[1]; 100 µM,42%
same,EC50,IDO1 [2],1.3 ± 0.068 µM
same,fold stronger IDO1 inhibitory activity than 1a,[3],10 fold
same,IC50,[3],8.541 ± 0.084 µM
same,inhibition at 0.032 µM,TDO enzyme; 32 nM,3%
same,inhibition at 0.16 µM,TDO enzyme; 160 nM,4%
same,inhibition at 0.8 µM,TDO enzyme; 800 nM,17%
same,inhibition at 4 µM,TDO enzyme; 4 µM,22%
same,inhibition at 20 µM,TDO enzyme; 20 µM,25%
same,inhibition at 100 µM,TDO enzyme; 100 µM,30%
same,IC50,IDO1 [4],1.19 ± 0.039 µM
same,inhibition at 0.032 µM,"IDO1 [4]; HPLC, 32 nM",11%
same,inhibition at 0.16 µM,"IDO1 [4]; HPLC, 160 nM",31%
same,inhibition at 0.8 µM,"IDO1 [4]; HPLC, 800 nM",36%
same,inhibition at 4 µM,"IDO1 [4]; HPLC, 4 µM",63%
same,inhibition at 20 µM,"IDO1 [4]; HPLC, 20 µM",79%
same,inhibition at 100 µM,"IDO1 [4]; HPLC, 100 µM",80%
Brc1ccc(-c2n[nH]nc2-c2ccc(Br)cc2)cc1 [Compound 1h],IC50,[3],40.7 ± 2.7 µM
Cc1ccc(-c2n[nH]nc2-c2ccc(C)cc2)cc1 [Compound 1b],IC50,[3],54.9 ± 0.757 µM
O=C(N/C(Cc1ccccc1)=N\O)c1n[nH]nc1-c1ccc(F)c(F)c1 [Compound 4g],IC50,[3],0.88 ± 0.018 µM
CC(C)(C)OC(=O)NCCNC(=O)c1n[nH]nc1-c1ccc(F)c(F)c1 [Compound 4f],IC50,[3],2.74 ± 0.195 µM
CCOC(=O)c1n[nH]nc1-c1cccc(Br)c1 [Compound 2e],IC50,[3],2.981 ± 0.012 µM
CC(=O)Nc1ccc(/C(=N/O)NC(=O)c2n[nH]nc2-c2ccc(F)c(F)c2)cc1 [Compound 4j],IC50,[3],2.36 ± 0.308 µM
Fc1ccc(-c2n[nH]nc2-c2ccc(F)c(Br)c2)cc1Br [1 l],fold stronger IDO1 inhibitory activity than 1a,[3],46 fold
same,IC50,[3],1.94 ± 0.083 µM
CCOC(=O)c1n[nH]nc1-c1cccc(Cl)c1 [Compound 2d],IC50,[3],2.55 ± 0.033 µM
Fc1ccc(-c2n[nH]nc2-c2ccc(F)cc2)cc1 [Compound 1f],IC50,[3],25.2 ± 1.7 µM
NC(=O)c1n[nH]nc1-c1cccc(Br)c1 [Compound 3e],IC50,[3],26.7 ± 2.2 µM
